Test results reported in patent US7858388B2, “MS based peptide and protein sequencing via reactions of lysine residues with peroxycarbonate compounds” (Vanderbilt University, priority 2004, dated 2010).

Test: Half-life of peroxycarbonate 1 in basic phosphate buffer (formation of p-nitrophenoxide)
Type: physicochemical
Conditions: pH 8.2 phosphate buffer (50% MeOH)
Protocol: Reaction of p-nitrophenylchloroformate with tert-butyl hydroperoxide gave the peroxycarbonate 1 which was isolated by silica chromatography as a white solid. Pyridine was added dropwise to a 0° C. methylene chloride solution of the hydroperoxide and chloroformate. The product was characterized by ^1H and ^13C NMR, HRMS, mp=55-56° C. In basic water or water acetonitrile mixtures, 1 gave an almost immediate yellow color indicative of the formation of p-nitrophenoxide. The half-life of 1 in pH 8.2 phosphate buffer (50% MeOH) is approximately 112 sec. In basic aqueous acetonitrile solutions, αN-acetyl lysine methyl ester was converted cleanly to 2 on reaction with 10 equivalents of 1. The peroxycarbamate 2 (Ac-LPC-OMe) is stable to chromatography and can be fully characterized by spectroscopy and HRMS (“LPC” is used herein for lycine peroxycarbamate).

Structure (SMILES): CC(C)(C)OOC(=O)Oc1ccc([N+](=O)[O-])cc1 [compound 1]
- half-life: ~1.87 min
